# Values joined by “and” are separate entries in the source; they are usually repeats but may differ in a detail not shown here. Identical values can stand only once. Like-named read-outs stand apart in the source and are kept apart here.
# Experiments:
# DENV-2 RL strain = assay: Survival study, lethal DENV challenge with 4G2 antibody; format: in vivo, AG129 mice
# DENV-2/16681/eGFP = assay: microbe, parasite or virus in culture; format: cell-based; settings: Dengue virus
# [1] = test system: subgenomic DENV-2/16681 reporter replicon (WT or NS4B mutants); assay: microbe, parasite or virus in culture; format: cell-based; settings: for FC: fold change of EC50 vs WT
# Plasma protein binding = format: in vitro ADME; settings: rhesus monkey, rhesus macaques
# DENV-1 G4 45AZ5 = assay: DENV-1/45AZ5 antiviral assay RT-qPCR; format: cell-based
# Procedure: A total of 20 DENV strains, representing the available genotypes within the four DENV serotypes, were used in the in vitro genotype panel, from which 19 viruses were described previously in ref. [3] and one additional virus, DENV-1/45AZ5 (ref. [54]), was added.
# A potential toxic effect on host cells was tested in parallel, while omitting virus infection, using the MTS/PMS method (Promega) for Vero cells, or by high-content imaging for C6/36 cells, as described previously. […] RT–qPCR data were analysed using the QuantStudio 12K Flex software (v.1.2.3) or SDS v.1.2 Applied Biosystems software. Inhibition values for antiviral molecules were plotted using KaleidaGraph plotting software (v.4.03, Synergy Software).
# [2] = ATPLite cell viability assay; format: cell-based; settings: human, Huh-7 cells; Huh-7, n=1
# Procedure: In parallel, the toxicity was measured using an ATPLite cell viability luminescence assay (PerkinElmer). The assays were performed in three different cell types (Vero, Huh-7 and THP-1/DC-SIGN) as described in ref. [3] to exclude cell-specific activity of the compound.
# ZIKV H/PF/2013 = assay: microbe, parasite or virus in culture; format: cell-based; settings: Zika virus, Vero C1008
smiles,measurement,setting,value
COc1cc(N[C@H](C(=O)c2c[nH]c3ccc(OC(F)(F)F)cc23)c2ccc(Cl)cc2OC)cc(S(C)(=O)=O)c1 [JNJ-1802],% Survival,"DENV-2 RL strain; 802R_3, BID, d p.i. 14",100%
same,% Survival,"DENV-2 RL strain; 802R_3, BID, d p.i. 15",100%
same,% Survival,"DENV-2 RL strain; 802R_3, BID, d p.i. 16",100%
same,% Survival,"DENV-2 RL strain; 802R_3, BID, d p.i. 17",100%
same,% Survival,"DENV-2 RL strain; 802R_3, BID, d p.i. 18",100%
same,% Survival,"DENV-2 RL strain; 802R_3, BID, d p.i. 19",100%
same,% Survival,"DENV-2 RL strain; 802R_3, BID, d p.i. 20",100%
same,% Survival,"DENV-2 RL strain; 802R_3, BID, d p.i. 21",100%
same,% Survival,"DENV-2 RL strain; 802R_3, BID, d p.i. 22",90%
same,% Survival,"DENV-2 RL strain; 802R_3, BID, d p.i. 23",90%
same,% Survival,"DENV-2 RL strain; 802R_3, BID, d p.i. 24",80%
same,% Survival,"DENV-2 RL strain; 802R_3, BID, d p.i. 25 = end of study",80%
same,% Survival,"DENV-2 RL strain; 802R_10, BID, d p.i. 0",100%
same,% Survival,"DENV-2 RL strain; 802R_10, BID, d p.i. 1",100%
same,% Survival,"DENV-2 RL strain; 802R_10, BID, d p.i. 2",100%
same,% Survival,"DENV-2 RL strain; 802R_10, BID, d p.i. 4",100%
same,% Survival,"DENV-2 RL strain; 802R_10, BID, d p.i. 5",100%
same,% Survival,"DENV-2 RL strain; 802R_10, BID, d p.i. 6",100%
same,% Survival,"DENV-2 RL strain; 802R_10, BID, d p.i. 7",100%
same,% Survival,"DENV-2 RL strain; 802R_10, BID, d p.i. 8",100%
same,% Survival,"DENV-2 RL strain; 802R_10, BID, d p.i. 9",100%
same,% Survival,"DENV-2 RL strain; 802R_10, BID, d p.i. 10",100%
same,% Survival,"DENV-2 RL strain; 802R_10, BID, d p.i. 11",100%
same,% Survival,"DENV-2 RL strain; 802R_10, BID, d p.i. 12",100%
same,% Survival,"DENV-2 RL strain; 802R_10, BID, d p.i. 13",100%
same,% Survival,"DENV-2 RL strain; 802R_10, BID, d p.i. 14",100%
same,% Survival,"DENV-2 RL strain; 802R_10, BID, d p.i. 15",80%
same,% Survival,"DENV-2 RL strain; 802R_10, BID, d p.i. 16",80%
same,% Survival,"DENV-2 RL strain; 802R_10, BID, d p.i. 17",80%
same,% Survival,"DENV-2 RL strain; 802R_10, BID, d p.i. 18",80%
same,% Survival,"DENV-2 RL strain; 802R_10, BID, d p.i. 19",80%
same,% Survival,"DENV-2 RL strain; 802R_10, BID, d p.i. 20",80%
same,% Survival,"DENV-2 RL strain; 802R_10, BID, d p.i. 21",80%
same,% Survival,"DENV-2 RL strain; 802R_10, BID, d p.i. 22",80%
same,% Survival,"DENV-2 RL strain; 802R_10, BID, d p.i. 23",80%
same,% Survival,"DENV-2 RL strain; 802R_10, BID, d p.i. 24",80%
same,% Survival,"DENV-2 RL strain; 802R_10, BID, d p.i. 25 = end of study",80%
same,EC50,"DENV-2/16681/eGFP; DENV2, THP-1, THP-1/DC-SIGN, read-out: EC50",0.173 ± 0.043 nM
same,EC90,"DENV-2/16681/eGFP; DENV2, THP-1, THP-1/DC-SIGN, read-out: EC90",0.283 ± 0.056 nM
same,EC50,"DENV-2/16681/eGFP; DENV2, THP-1, read-out: EC50, individual data",0.2 nM
same,EC90,"DENV-2/16681/eGFP; DENV2, THP-1, read-out: EC90, individual data",0.25 nM
same,EC50,"[1]; Dengue virus, DENV2, NS4B L94F_V91A_T108I replicon SDM210002",2380 nM
same,EC50,"[1]; NS4B A222S replicon SDM200008, read-out: EC50",0.35 nM
same,EC50,"[1]; NS4B F237Y replicon SDM140022, Huh7 transient, listed as 64281802-AAA, read-out: EC50",7.9 nM and 11 nM and 9.2 nM
same,EC50,"[1]; NS4B L94F_V91A_T108I replicon SDM210002, listed as 64281802-AAA",2350 nM and 2290 nM
same,EC50,"[1]; NS4B V91A replicon SDM140014, Huh7 transient, listed as 64281802-AAA, read-out: EC50",40 nM and 47 nM and 58 nM and 50 nM
same,EC50,"[1]; NS4B V219A replicon SDM200007, listed as 64281802-AAA, read-out: EC50",0.6 nM and 0.52 nM and 0.63 nM and 0.92 nM and 0.78 nM
same,EC50,"[1]; WT replicon pFK-sgDVs-R2A-SDM120005, Huh7 transient",0.33 nM
same,FC,"[1]; NS4B A222S, listed as 64281802-AAA",1.1 and 1.2 and 0.9 and 1.3 and 1.4
same,FC,"[1]; NS4B F237Y, listed as 64281802-AAA",46.0 and 32.0 and 23.0
same,FC,"[1]; NS4B L94F_V91A_T108I, listed as 64281802-AAA",3872.3 and 4594.9 and 4248.1
same,FC,"[1]; NS4B M183T, listed as 64281802-AAA",1.1 and 1.2 and 1.6 and 1.4
same,FC,"[1]; NS4B S85L, listed as 64281802-AAA",3.1 and 3.4 and 3.6 and 4.3 and 4.0
same,FC,"[1]; NS4B T195A, listed as 64281802-AAA",2.9 and 3.2 and 2.4 and 3.7 and 3.5
same,FC,"[1]; NS4B V91A, listed as 64281802-AAA",232.0 and 190.0 and 127.0 and 176.0
same,FC,"[1]; NS4B V219A, listed as 64281802-AAA",1.8 and 1.9 and 1.5 and 1.4
same,fraction unbound,Plasma protein binding,< 0.001
same,EC50,"DENV-1 G4 45AZ5; DENV-qPCR-VeroECACC-deltaCt-DENV-1/45AZ5_pre-seeding, single experiments (EXPERIMENT_ID), listed as 64281802-AAA, read-out: EC50 (µM) result_value, DENV-1/45AZ5",0.0016 µM
same,EC90,"DENV-1 G4 45AZ5; Dengue virus, DENV1",4.18 ± 0.71 nM
same,EC50,"DENV-1 G4 45AZ5; Dengue virus, DENV1, DENV-qPCR-VeroECACC-deltaCt-DENV-1/45AZ5_pre-seeding, mean of 6 results, read-out: EC50 (µM) Mean, DENV-1/45AZ5",0.00152 µM
same,EC50,"DENV-1 G4 45AZ5; Dengue virus, DENV1, DENV-qPCR-VeroECACC-deltaCt-DENV-1/45AZ5_pre-seeding, single experiments (EXPERIMENT_ID), read-out: EC50 (µM) result_value, DENV-1/45AZ5",0.0015 µM
same,CC50,[2],12700 nM
same,EC50,ZIKV H/PF/2013,1100 nM
